In ChEMBL document CHEMBL1921739, “Diabetic nephropathy-related active cyclic peptides from the roots of Brachystemma calycinum” (Bioorg Med Chem Lett, 2011):
Activity calls are given as the source filed them. The rule behind the calls is not given here. Peptide text beside a SMILES is read from it.

Experiments:
[1] = Antidiabetic nephropathy activity in rat CRL-2573 cells assessed as inhibition of high glucose-induced ROS production at 1 to 10 uM by flow cytometry; format: functional, cell-based
[2] = Antidiabetic nephropathy activity in rat CRL-2573 cells assessed as inhibition of high glucose-induced IL-6 production at 10 uM preincubated for 1 hr before glucose challenge measured after 24 hrs by ELISA; format: functional, cell-based
[3] = Antidiabetic nephropathy activity in rat CRL-2573 cells assessed as inhibition of high glucose-induced MCP-1 production at 10 uM preincubated for 1 hr before glucose challenge measured after 24 hrs by ELISA; format: functional, cell-based
[4] = Cytotoxicity against rat CRL-2573 cells assessed as cell viability at 10 uM after 24 hrs by trypan blue exclusion assay; format: cell-based; conditions: crl-2573, 24 h
[5] = Antidiabetic nephropathy activity in rat CRL-2573 cells assessed as inhibition of high glucose-induced collagen 4production at 1 uM preincubated for 1 hr before glucose challenge measured after 24 hrs by ELISA; format: functional, cell-based

| SMILES | Activity [1] | Activity [2] | Activity [3] | Activity [4] | Activity [5] |
| --- | --- | --- | --- | --- | --- |
| CC(C)C[C@@H]1NC(=O)[C@H](CC(=O)O)NC(=O)[C@H](Cc2c[nH]c3ccccc23)NC(=O)[C@H](C)NC(=O)[C@@H]2CCCN2C(=O)CNC(=O)[C@H](Cc2ccccc2)NC(=O)[C@@H]2CCCN2C1=O (cyclo(AWDLPFGP)) | Active | Active | Active | – | – |
| CC[C@H](C)[C@@H]1NC(=O)[C@@H]2CCCN2C(=O)[C@@H]2CCCN2C(=O)[C@H](Cc2ccc(O)cc2)NC(=O)[C@H](CO)NC(=O)[C@H](C)NC(=O)[C@H](Cc2ccccc2)NC(=O)[C@H](CO)NC1=O [DUANBANHUAIN A] (cyclo(ASYPPISF)) | Active | Active | Active | Non-toxic | Active |
